Measurements from patent publication US20210395210A1, “INHIBITION OF BACTERIAL CHAPERONIN SYSTEMS” (THE TRUSTEES OF INDIANA UNIVERSITY, priority 2018, published 2021).
Read-outs that look alike come from different tables or passages of the source.

Columns and labels:
[1] = test system: Methicillin resistant S. aureus (MRSA) (ATCC BAA-44); test: Bacterial proliferation assay, MRSA; format: cell-based, Staphylococcus aureus
Procedure, shortened: (§1)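 Cultures in BHI broth with 25 mg/L Ca2+ and 12.5 mg/L Mg2+ were diluted to OD600 0.017 and exposed to compounds in 384-well plates at 37 °C without shaking. OD600 was read at 6-8 h (S. aureus, E. cloacae, P. aeruginosa) or 24 h (A. baumannii). EC50 values were averaged over quadruplicates.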

[2] = test system: Acinetobacter baumannii (ATCC 19606); test: Bacterial proliferation assay, A. baumannii; format: cell-based
Procedure, shortened: as §1

[3] = test system: Klebsiella Pneumonia (ATCC 13883); test: Bacterial proliferation assay, K. pneumoniae; format: cell-based
Procedure, shortened: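 Klebsiella pneumoniae ATCC 13883 was cultured in Brain Heart Infusion medium supplemented with 25 mg/L Ca^2+ and 12.5 mg/L Mg^2+. Cells were diluted to OD600 0.017, and 30 μL was added to 384-well plates holding 0.5 μL compound in 20 μL media. Plates were incubated stagnantly at 37° C., and OD600 was read at 6-8 h to determine EC50.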

[4] = test system: Enterococcus faecium (ATCC 19434); test: Bacterial proliferation assay, E. faecium; format: cell-based
Procedure, shortened: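 Enterococcus faecium ATCC 19434 was grown overnight at 37° C. in BHI broth supplemented with 25 mg/L Ca^2+ and 12.5 mg/L Mg^2+, subcultured 1:5, and diluted to OD600 0.017. 30 μL portions went into 384-well plates holding compounds, sealed with oxygen-permeable membranes, and incubated stagnant at 37° C. OD600 was read at 24 h to give EC50.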

native MDH = molecular target: T1, native MDH (Sus scrofa, UniProt P00346); test: Counter-screen for inhibition of native MDH enzymatic activity; format: biochemical, pig
T1 construct: soluble pig heart MDH from Roche, product #10127248001; purchased Roche 10127248001; host or cells: pig heart
T1 sequence (P00346 25-338): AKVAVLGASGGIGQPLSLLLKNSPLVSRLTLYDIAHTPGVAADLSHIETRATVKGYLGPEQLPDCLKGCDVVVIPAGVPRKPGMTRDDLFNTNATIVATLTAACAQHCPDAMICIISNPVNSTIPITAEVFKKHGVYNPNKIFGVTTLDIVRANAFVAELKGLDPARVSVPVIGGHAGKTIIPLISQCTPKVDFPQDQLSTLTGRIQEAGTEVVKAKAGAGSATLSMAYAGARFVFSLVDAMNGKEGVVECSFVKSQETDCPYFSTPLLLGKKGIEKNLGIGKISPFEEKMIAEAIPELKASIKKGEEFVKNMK
Procedure, shortened: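 Compounds were added only after GroEL/ES-mediated MDH refolding (45 min, 37 °C) had been EDTA-quenched, so only refolded MDH activity is probed.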

[5] = Staphylococcus aureus, MRSA, log of EC50 (μM scale), with standard deviation, read-out: log(EC50) Bacterial Proliferation Assay S. aureus Resistant (converted)
[6] = ATCC19606, OD600 at 24 h, read-out: Bacterial Proliferation EC50 A. baumannii
[7] = ATCC19606, log of EC50 (μM scale), with standard deviation, read-out: log(EC50) Bacterial Proliferation Assay A. baumannii (converted)
[8] = ATCC13883, OD600 at 6-8 h, read-out: Bacterial Proliferation EC50 K. pneumoniae
[9] = ATCC13883, log of EC50 (μM scale), with standard deviation, read-out: log(EC50) Bacterial Proliferation Assay K. pneumoniae (converted)
[10] = ATCC19434, OD600 at 24 h, read-out: Bacterial Proliferation EC50 E. faecium
[11] = ATCC19434, log of EC50 (μM scale), with standard deviation, read-out: log(EC50) Bacterial Proliferation Assay C. faecium (converted)
[12] = log of IC50 (μM scale), with standard deviation, read-out: log(IC50) Native MDH Reporter (converted)
[13] = read-out: Biochemical Assay IC50 Native MDH Reporter
[14] = Staphylococcus aureus, read-out: log(EC50) Bacterial Proliferation Assay S. aureus Resistant (converted)
[15] = ATCC19606, 24 h, read-out: Bacterial Proliferation EC50 A. baumannii
[16] = ATCC19606, read-out: log(EC50) Bacterial Proliferation Assay A. baumannii (converted)
[17] = ATCC13883, read-out: Bacterial Proliferation EC50 K. pneumoniae
[18] = ATCC13883, read-out: log(EC50) Bacterial Proliferation Assay K. pneumoniae (converted)
[19] = ATCC19434, 24 h, read-out: Bacterial Proliferation EC50 E. faecium
[20] = ATCC19434, read-out: log(EC50) Bacterial Proliferation Assay C. faecium (converted)

| SMILES | EC50 [1, 5] [µM] | EC50 [2, 6] [µM] | EC50 [2, 7] [µM] | EC50 [3, 8] [µM] | EC50 [3, 9] [µM] | EC50 [4, 10] [µM] | EC50 [4, 11] [µM] | IC50 (native MDH; [12]) [µM] | IC50 (native MDH; [13]) [µM] | also measured |
| --- | --- | --- | --- | --- | --- | --- | --- | --- | --- | --- |
| COc1ccccc1C(=O)Nc1cccc(Cl)c1 [Compound 40, N-(3-Chlorophenyl)-2-methoxybenzamide] | > 100 | > 100 | > 100 | > 100 | > 100 | > 100 | > 100 | > 63.1 | > 63 |  |
| COc1c(Br)cc(Br)cc1C(=O)Nc1ccccc1 [Compound 41, 3,5-Dibromo-2-methoxy-N-phenylbenzamide] | > 100 | > 100 | > 100 | > 100 | > 100 | > 100 | > 100 | > 63.1 | > 63 |  |
| COc1c(Br)cccc1C(=O)Nc1ccccc1 [Compound 42, 3-Bromo-2-methoxy-N-phenylbenzamide] | > 100 | > 100 | > 100 | > 100 | > 100 | > 100 | > 100 | > 63.1 | > 63 |  |
| COc1ccc(Br)cc1C(=O)Nc1ccccc1 [Compound 43, 5-Bromo-2-methoxy-N-phenylbenzamide] | > 100 | > 100 | > 100 | > 100 | > 100 | > 100 | > 100 | > 63.1 | > 63 |  |
| COc1ccccc1C(=O)Nc1ccccc1 [Compound 44, 2-Methoxy-N-phenylbenzamide] | > 100 | > 100 | > 100 | > 100 | > 100 | > 100 | > 100 | > 63.1 | > 63 |  |
| O=C(Nc1ccc(Oc2ccc(Cl)cc2)c(Cl)c1)c1cc(I)cc(I)c1O [Rafoxanide, rafoxanide, reference compound] |  |  |  |  |  |  |  |  |  | EC50 ([1]; MRSA, OD600 at 6-8 h, read-out: Bacterial Proliferation EC50 S. aureus Resistant): 0.34 µM; EC50 [1, 14]: 0.347 µM; EC50 [2, 15]: 31 µM; EC50 [2, 16]: 30.9 µM; EC50 [3, 17]: > 100 µM; EC50 [3, 18]: > 100 µM; EC50 [4, 19]: 0.99 µM; EC50 [4, 20]: 1 µM; log(IC50) Native MDH Reporter (native MDH; log of IC50 (μM scale), with standard deviation): 1.40 ± 0.34 |
| CO[C@H]1/C=C/O[C@@]2(C)Oc3c(C)c(O)c4c(O)c(c(/C=N/N5CCN(C)CC5)c(O)c4c3C2=O)NC(=O)/C(C)=C\C=C\[C@H](C)[C@H](O)[C@@H](C)[C@@H](O)[C@@H](C)[C@H](OC(C)=O)[C@@H]1C [Rifampicin, rifampicin, reference compound] | 0.229 | 1.3 | 1.32 | 11 | 11 | 0.13 | 0.126 | > 63.1 |  | EC50 ([1]; Staphylococcus aureus, MRSA, OD600 at 6-8 h, read-out: Bacterial Proliferation EC50 S. aureus Resistant): 0.23 µM |
| CN[C@H](CC(C)C)C(=O)N[C@H]1C(=O)N[C@@H](CC(N)=O)C(=O)N[C@H]2C(=O)N[C@H]3C(=O)N[C@H](C(=O)N[C@H](C(=O)O)c4cc(O)cc(O)c4-c4cc3ccc4O)[C@H](O)c3ccc(c(Cl)c3)Oc3cc2cc(c3O[C@@H]2O[C@H](CO)[C@@H](O)[C@H](O)[C@H]2O[C@H]2C[C@](C)(N)[C@H](O)[C@H](C)O2)Oc2ccc(cc2Cl)[C@H]1O [Vancomycin, vancomycin, reference compound] |  |  |  |  |  |  |  |  |  | EC50 ([1]; Staphylococcus aureus, read-out: Bacterial Proliferation EC50 S. aureus Resistant): 0.52 µM; EC50 [1, 14]: 0.513 µM; EC50 [2, 15]: > 100 µM; EC50 [2, 16]: > 100 µM; EC50 [3, 17]: > 100 µM; EC50 [3, 18]: > 100 µM; EC50 [4, 19]: 0.6 µM; EC50 [4, 20]: 0.589 µM; IC50 (native MDH; Biochemical Assay IC50 Native MDH Reporter): > 63 µM; IC50 (native MDH; log(IC50) Native MDH Reporter, log of IC50 (μM scale), with standard deviation): > 63.1 µM |
